Assay results published in patent US12595236B2, “Pyrimidine-2,4-diamine compound and preparation method and application thereof” (ANHUI MEDICAL UNIVERSITY, priority 2021, dated 2026).

Experiments:
[1] = biological target: T1, intracellular cathepsin C in U937 cells (Homo sapiens, UniProt P53634); test: In vitro inhibitory effect on intracellular cathepsin C in U937 cells; assay type: cell-based; details: 1 h incubation at 37° C., h-gly-arg-amc 200 μM, read-out: U937 CatC IC50
T1 construct: endogenous in cells; host or cells: U937
T1 sequence (P53634 25-463): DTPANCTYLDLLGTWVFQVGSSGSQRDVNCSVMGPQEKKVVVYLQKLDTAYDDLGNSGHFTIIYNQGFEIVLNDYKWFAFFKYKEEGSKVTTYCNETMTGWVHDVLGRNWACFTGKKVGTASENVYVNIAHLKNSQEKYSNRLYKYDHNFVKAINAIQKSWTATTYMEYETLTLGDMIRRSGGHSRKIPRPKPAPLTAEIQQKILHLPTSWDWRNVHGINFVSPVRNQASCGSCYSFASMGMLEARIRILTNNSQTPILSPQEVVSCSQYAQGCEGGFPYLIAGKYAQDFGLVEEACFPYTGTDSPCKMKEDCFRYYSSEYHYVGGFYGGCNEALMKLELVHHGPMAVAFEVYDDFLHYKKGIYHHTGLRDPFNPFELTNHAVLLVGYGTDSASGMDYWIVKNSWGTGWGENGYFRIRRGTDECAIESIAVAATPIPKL

[2] = biological target: T2, intracellular cathepsin C in THP-1 cells (Homo sapiens, UniProt P53634); test: In vitro inhibitory effect on intracellular cathepsin C in THP-1 cells; assay type: cell-based; details: 1 h incubation at 37° C., h-gly-arg-amc 200 μM, read-out: THP-1 CatC IC50
T2 construct: endogenous in cells; host or cells: THP-1
T2 sequence (P53634 25-463): as above

[3] = biological target: human recombinant cathepsin C (Homo sapiens, UniProt P53634); test: In vitro inhibitory effect on human recombinant cathepsin C (h-gly-arg-amc substrate); assay type: biochemical; details: human recombinant cathepsin C 2 nM, 30 min preincubation at 25° C., substrate 100 μM; read-out: CatC IC50
human recombinant cathepsin C, sequence (P53634 25-463): as above

[4] = test system: cathepsin C and downstream NSPs; test: Cathepsin C and NSP levels in COPD model; assay type: in vivo; details: COPD rats, oral 5, 15, 45 mg/kg twice a day; bone marrow, blood, lung, and BALF; dose-dependent
Protocol: (§1) A combination of fumigation and LPS (Sigma) was used. […] Except for the negative control group, all rats were exposed to cigarette smoke (XIONGSHI) for 45 min in each day from day 1 to day 13 and day 15 to day 30, subjected to tracheal instillation of LPS ([…]) on day 0 (start point of the study), and subjected to tracheal instillation of LPS ([…]) on day 14. The body weight was recorded every three days, and the behavior, coat color and breathing were observed daily. On day 31, the animals were euthanized with an overdose of chloral hydrate. Subsequently, lung, bronchoalveolar lavage fluid (BALF), blood, bone marrow samples were collected and stored at −80° C. until being detected. The levels of cathepsin C and NSP were detected with previously described methods, and cytokine levels in all samples were analyzed by ELISA kits (MULTI SCIENCES).

cathepsin C and NSPs = test: Test of in vivo inhibition of cathepsin C and NSPs in normal mice; details: C57BL/6 mice, oral 5, 15, 45 mg/kg for 6 days; bone marrow and blood; dose-dependent
Protocol: Test of In Vivo Inhibition of Cathepsin C and NSPs.
C57BL/6 mice (half sex, about 20 g, purchased from the Department of Animal Science of Anhui Medical University) were randomly divided into four groups (N=6). […] Mice in the control group were administered with the same amount of normal saline twice a day for 6 days. At the end, bone marrow and blood were drawn to analyze the activity of cathepsin C and NSPs. Bone marrow and blood lysates were added to a 384-well plate. A synthetic peptide substrate was used to analyze the activity of NSPs and cathepsin C.

[5] = In vivo acute toxicity evaluation; details: mouse, ICR mice, oral, 1500 mg/kg at one time, observed one week
Excerpt: (§2) In Vivo Acute Toxicity Evaluation:
(§3) The mice were randomly divided into two groups and subjected to adaptive feeding for one week. […] The body weight, mortality and behavior of the mice were observed and recorded daily for one week. Subsequently, the mice were anesthetized and the tissues were used for HE staining.

ICR mice = test: In vivo acute toxicity evaluation; details: mouse, po, 1500 mg/kg
Excerpt: as §2, §3

COPD rat model = test: In vivo anti-inflammatory activity assessment, COPD model (fumigation and LPS); design: species or system rats; details: oral 5, 15, 45 mg/kg twice a day
Protocol: In Vivo Anti-Inflammatory Activity Assessment:
as §1

[6] = test system: cytokines (IFN-γ, IL-1β, IL-6, IL-17, TNF-α, GM-CSF, IL-10); test: Cytokine levels in COPD model by ELISA; assay type: in vivo; details: COPD rats; bone marrow, blood, lung, and BALF; dose-dependent
Protocol: as §1

| IC50 [1] | IC50 [2] | Compound | IC50 [3] | cathepsin C activity and downstream NSP activation [4] | cathepsin C activity and downstream NSP activation (cathepsin C and NSPs) | LD50 at 1 week [5] | pathological changes in tissues and organs (HE staining) (ICR mice) | histopathological changes of lung tissue (H&E staining) (COPD rat model; COPD rat model) | body weight (COPD rat model; COPD rats) | pulmonary inflammation and systemic inflammation (COPD rat model; COPD rats, 28 days, compared with the model group) | IL-10 level [6] | level of pro-inflammatory cytokines (IFN-γ, IL-1β, IL-6, IL-17, TNF-α, and GM-CSF) [6] |
| --- | --- | --- | --- | --- | --- | --- | --- | --- | --- | --- | --- | --- |
| 156 ± 2.13 nM | 139.8 ± 1.03 nM | CON1CCN(c2ccc(Nc3ncc(C)c(Nc4cccc(C(F)(F)F)c4)n3)nc2)CC1 [Compound 67, 5-methyl-N^2-(5-(4-methoxypiperazin-1-yl)pyridin-2-yl)-N^4-(3-(trifluoromethyl)phenyl)pyrimidine-2,4-diamine] | 167 ± 2.01 nM | – | – | – | – | – | – | – | – | – |
| 199 ± 2.03 nM | 240.5 ± 1.2 nM | CCCCN1CCN(c2ccc(Nc3ncc(Cl)c(Nc4cccc(C(F)(F)F)c4)n3)nc2)CC1 [Compound 48, N^2-(5-(4-butylpiperazin-1-yl)pyridin-2-yl)-5-chloro-N^4-(3-(trifluoromethyl)phenyl)pyrimidine-2,4-diamine] | – | – | – | – | – | – | – | – | – | – |
| – | – | CN1CCN(c2ccc(Nc3ncc(Cl)c(Nc4cccc(C(F)(F)F)c4)n3)nc2)CC1 [Compound 41, 5-chloro-N^2-(5-(4-methylpiperazin-1-yl)pyridin-2-yl)-N^4-(3-(trifluoromethyl)phenyl)pyrimidine-2,4-diamine] | – | decreased obviously | decreased obviously | > 1500 mg/kg | no pathological changes were found | ameliorated these histopathological changes in an obvious dose-dependent manner | lost their weight slowly and gained weight slightly after about 20 days | significantly less suffered from pulmonary inflammation and systemic inflammation | increased cytokines (IL-10) in a dose-dependent manner | decreased level of pro-inflammatory cytokines |

| Compound | IC50 [1] | IC50 [2] | IC50 [3] | cathepsin C activity and downstream NSP activation [4] | cathepsin C activity and downstream NSP activation (cathepsin C and NSPs) | LD50 at 1 week [5] | pathological changes in tissues and organs (HE staining) (ICR mice) | histopathological changes of lung tissue (H&E staining) (COPD rat model; COPD rat model) | body weight (COPD rat model; COPD rats) | pulmonary inflammation and systemic inflammation (COPD rat model; COPD rats, 28 days, compared with the model group) | IL-10 level [6] | level of pro-inflammatory cytokines (IFN-γ, IL-1β, IL-6, IL-17, TNF-α, and GM-CSF) [6] |
| --- | --- | --- | --- | --- | --- | --- | --- | --- | --- | --- | --- | --- |
| 5-chloro-N^2-(5-(4-(dimethylamino)phenyl)pyridin-2-yl)-N^4-(3-(trifluoromethyl)phenyl)pyrimidine-2,4-diamine [Compound 61] | 377.5 ± 0.9 nM | 278.2 ± 1.2 nM | 305.3 ± 2.7 nM | – | – | – | – | – | – | – | – | – |
